The text below walks through data of patent US20230395193A1 (priority 2020, published 2023).

Assay [1] concerns SARS-CoV-2. The format is cell-based.
The test system of another assay is SARS-CoV-1 (Urbani). The format is cell-based.
Assay [2] relates to SARS-CoV-2. The format is cell-based. This is another data set of the same source.
For the next assay, the system named is SARS-CoV-1. The note with it: cited from earlier work.
Another assay concerns canine coronavirus. The note with it: previous study (Amici et al. 2006); cited from earlier work.
For assay [3], the system named is SARS-CoV-1, MERS-CoV and SARS-CoV-2 proteins in HEK293T cells. Further details: species or system human.

With `CCCCc1oc2ccccc2c1C(=O)c1cc(I)c(OCCN(CC)CC)c(I)c1` [amiodarone], the “Antiviral activity against SARS-CoV-2 (in words)” value in the assay with SARS-CoV-2 [1] is “inhibited”. The “Antiviral activity against SARS-CoV-1 (in words)” value with SARS-CoV-1 (Urbani) is listed as “inhibited”.

Take `COc1ccc2c(c1)c(CC(=O)O)c(C)n2C(=O)c1ccc(Cl)cc1` [indomethacin]: in the assay with SARS-CoV-2 [2], the “Inhibition of SARS-CoV-2 in vitro (in words)” value was “did not inhibit SARS-CoV-2 in vitro at reasonable antiviral concentrations”. Also, the “Inhibition of SARS-CoV-1 in vitro (in words)” value in the assay on SARS-CoV-1 is “similarly high levels of the drug were needed for inhibition”. Further, the “Efficacy against canine coronavirus in vivo (in words)” value in the assay on canine coronavirus is “showed efficacy”.

In assay [3], E-Q8WVM8 gave an MIST_MERS of 0.7214, an MIST_SARS1 of 0.3063, an MIST_SARS2 of 0 and a Saint_MERS of 0.95. In assay [3], the Saint_SARS1 worked out at 0 and the Saint_SARS2 was found to be 0.

In assay [3], E-Q9UBS3 registered an MIST_MERS of 0.9729, an MIST_SARS1 of 0, an MIST_SARS2 of 0 and a Saint_MERS of 0.98. For the same compound, in assay [3], the Saint_SARS1 worked out at 0 and the Saint_SARS2 amounted to 0.

For E-Q9ULP9, in assay [3], the MIST_MERS came out at 0, the MIST_SARS1 was 0.9165, the MIST_SARS2 was determined as 0 and the Saint_MERS stood at 0. In assay [3], the Saint_SARS1 stood at 0.97 and the Saint_SARS2 is on record as 0.

In assay [3], M-Q8TEM1 returned an MIST_MERS of 0.7258, an MIST_SARS1 of 0.02986, an MIST_SARS2 of 0 and a Saint_MERS of 1. In assay [3], this compound gave a Saint_SARS1 of 0 and a Saint_SARS2 of 0.

In assay [3], M-Q9NVH2 yielded an MIST_MERS of 0, an MIST_SARS1 of 0.8943, an MIST_SARS2 of 0.8082 and a Saint_MERS of 0. In assay [3], this compound had a Saint_SARS1 of 0.97 and a Saint_SARS2 of 0.64.

In assay [3], M-Q96HW7 had an MIST_MERS of 0, an MIST_SARS1 of 0.8124, an MIST_SARS2 of 0.9433 and a Saint_MERS of 0. For the same compound, in assay [3], the Saint_SARS1 is reported as 0.33 and the Saint_SARS2 stood at 0.65.
